According to patent publication US9126935B2, “Aurora kinase modulators and methods of use” (Amgen Inc., priority 2008, dated 2015):

Assays:
HeLa cells = experiment: HeLa cell 24 hr ploidy assay; type: cell-based; details: Homo sapiens, 24 hrs treatment, average, read-out: 24h_4N Ploidy EC50_IP (uM Avg)
Procedure: The purpose of this assay is to evaluate the ability of selected individual compounds to induce Deoxyribonucleic acid (DNA) content (ploidy) in cells through failed cell division. Cell cycle analysis is a rapid and efficient way to evaluate the status of DNA content (ploidy) of a given cell. HeLa cells (1×10^4 HeLa cells/well) in 100 ul of media (MEM+10% FBS) were plated in 96-well plates (Packard View) and cultured for 24 hrs at 37° C. maintained in a 5% CO2 atmosphere. The following day, cells were treated for 24 hrs with inhibitor compounds (10 pt. Dose ranging from 0.0024-1.25 umol/L). The compounds were serially diluted in DMSO (0.25% final concentration). The cells were fixed (3.7% Formaldehyde and 1% glutaraldehyde) and permeabilized (1×PBS with 1% BSA and 0.2% Triton X-100) in preparation for nuclear staining. The well plates were stained for 45 minutes at RT in the dark using Hoechest 33342 nuclear stain at 0.5 ug·ml (Stock of 10 mg/ml, Invitrogen, CA, Cat # H3570). The nuclear stain was removed by aspiration and the cells were washed with wash buffer. A Cellomics Array Scan Vti plate reader was used to acquire the DNA ploidy data of the cells using Cell Cycle bioapplication. Numbers for each of “valid cell count/well”, “% of 4N cells” and “% of >4Ncells” were calculated with the assistance of an Activity Base 5.1ca software and dose curves were generated using an XLFit software. With XLFit, final EC50 IP and EC50 transit values, as well as the Max and Min, were calculated for each curve.

AuroraA-TPX2 = target: T1, AuroraA-TPX2 (Homo sapiens, UniProt O14965); experiment: AuroraA-TPX2 Homogeneous Time Resolved Fluorescent (HTRF) kinase assay; type: biochemical; details: average; ATP about 1 μM; read-out: AurA _IC50_ IP (uM Avg)
T1 construct: 20 μL of AuroraA-TPX2 KD GST for a final volume of about 41 μL; GST
T1 sequence (O14965 133-383 limits assumed): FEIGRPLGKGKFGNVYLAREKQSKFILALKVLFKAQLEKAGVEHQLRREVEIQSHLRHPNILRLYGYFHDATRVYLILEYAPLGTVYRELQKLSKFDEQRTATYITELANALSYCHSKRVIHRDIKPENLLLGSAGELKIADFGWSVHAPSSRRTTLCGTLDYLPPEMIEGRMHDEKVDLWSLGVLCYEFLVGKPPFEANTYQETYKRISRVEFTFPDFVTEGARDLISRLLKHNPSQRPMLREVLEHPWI
T1 sequence (Q9ULW0 1-43 partner limits assumed): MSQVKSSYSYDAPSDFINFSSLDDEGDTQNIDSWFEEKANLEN
Procedure: The Aurora-A HTRF assay begins with Aurora-A in the presence of ATP phosphorylating the biotinylated peptide PLK. The reaction incubates for about 120 min. Detection reagents are added to quench the reaction. These agents stop the reaction by diluting out the enzyme and chelating the metals due to the presence of EDTA. After addition, the assay is incubated overnight to allow the detection reagents to equilibrate.
The AuroraA HTRF assay comprises 1 μL of compound in 100% DMSO, 20 μL of ATP and biotinylated PLK, and 20 μL of AuroraA-TPX2 KD GST for a final volume of about 41 μL. The final concentration of PLK is about 1 μM. The final concentration of ATP is about 1 μM (Km(app)=1 μM+/−0.1) and the final concentration of AuroraA is about 5 nM. Buffer conditions are as follows: 60 mM HEPES pH 7.5, 25 mM NaCl, 10 mM MgCl, 2 mM DTT, 0.05% BSA.
(§1) The assay is quenched and stopped with 160 μL of detection reagent. Detection reagents are as follows: Buffer made of 50 mM Tris, pH 7.5, 100 mM NaCl, 3 mM EDTA, 0.05% BSA, 0.1% Tween20. Added to this buffer prior to reading is Steptavidin allophycocyanin (SA-APC) at a final conc in the assay of 0.0005 mg/mL, and europilated anti-phosphoPLK Ab (Eu-anti-PLK) at a final conc of 0.02 nM.
(§2) The assay plate is read in either a Discovery or a RubyStar. The eu-anti-PLK is excited at 320 nm and emits at 615 nm to excite the SA-APC which in turn emits at 655 nm. The ratio of SA-APC at 655 nm (excited due to close proximity to the Eu-anti-PLK because of phosphorylation of the peptide) to free Eu-anti-PLK at 615 nm will give substrate phosphorylation.

AuroraB = target: T2, AuroraB (Homo sapiens, UniProt Q96GD4); experiment: AuroraB Homogeneous Time Resolved Fluorescent (HTRF) kinase assay; type: biochemical; details: average; ATP 23 μM; read-out: AurB_IC50_IP (uM Avg)
T2 construct: 20 μL of AuroraB FL His for a final volume of 41 μL; His
T2 sequence (Q96GD4 whole entry): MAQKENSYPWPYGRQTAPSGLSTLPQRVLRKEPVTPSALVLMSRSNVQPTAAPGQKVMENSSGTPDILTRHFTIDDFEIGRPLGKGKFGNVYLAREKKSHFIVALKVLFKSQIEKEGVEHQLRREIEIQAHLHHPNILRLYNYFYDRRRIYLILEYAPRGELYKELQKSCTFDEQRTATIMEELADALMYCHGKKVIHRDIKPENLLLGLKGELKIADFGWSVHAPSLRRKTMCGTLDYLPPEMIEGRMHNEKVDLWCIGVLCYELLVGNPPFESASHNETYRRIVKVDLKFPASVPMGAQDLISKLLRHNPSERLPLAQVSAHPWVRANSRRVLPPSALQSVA
Procedure: The AuroraB HTRF assay begins with AuroraB in the presence of ATP phosphorylating the biotinylated peptide Histone H3. The reaction incubates for about 90 min. the reaction is quenched by addition of detection reagents, which stop the reaction by diluting out the enzyme and chelating the metals due to the presence of EDTA. After addition, the assay is incubated for about 60 min to allow detection reagents to equilibrate.
The AuroraB HTRF assay comprises 1 μL of compound in 100% DMSO, 20 μL of ATP and biotinylated Histone H3, and 20 μL of AuroraB FL His for a final volume of 41 μL. The final concentration of Histone H3 is 0.1 μM. The final concentration of ATP is 23 μM (Km(app)=23 μM+/−2.6) and the final concentration of AuroraB is 400 pM. Buffer conditions are as follows: 50 mM HEPES pH 7.5, 5 mM NaCl, 0.5 mM MgCl, 0.5 mM MnCl, 2 mM DTT, 0.05% BSA.
as §1, with “0.001” for “0.0005”, “anti-phosphoHistoneH3” for “anti-phosphoPLK”, “(Eu-anti-His H3)” for “(Eu-anti-PLK)”, “0.064” for “0.02”
as §2, with “The eu-anti-His H3” for “The eu-anti-PLK”, “the Eu-anti-H is H3” for “the Eu-anti-PLK”, “free Eu-anti-His H3” for “free Eu-anti-PLK”

Row | EC50 (HeLa cells) [µM] | IC50 (AuroraA-TPX2) [µM] | IC50 (AuroraB) [µM] | SMILES
1 | 0.5 to 1 | 0.5 to 1 | < 0.1 | COc1cnc2c(Sc3ccc(NC(=O)c4ccccc4NN4CCCCC4)cc3)ccnc2c1 [Example 19, N-(4-(7-methoxy-1,5-naphthyridin-4-ylthio)phenyl)-2-(piperidin-1-ylamino)benzamide]
2 | – | < 0.1 | < 0.1 | COc1cc2nccc(Oc3ccc(NC(=O)c4ccccc4Nc4ccccc4)cc3F)c2cc1OC [Example 16, N-(4-(6,7-dimethoxyquinolin-4-yloxy)-3-fluorophenyl)-2-(phenylamino)benzamide]
3 | 1 to 5 | 0.1 to 0.5 | 0.1 to 0.5 | Nc1nccc(Oc2ccc(NC(=O)c3ccccc3Nc3ccc(F)cc3)cc2)n1 [Example 18, N-(4-(2-aminopyrimidin-4-yloxy)phenyl)-2-(4-fluorophenylamino)benzamide]
4 | < 0.1 | < 0.1 | < 0.1 | COc1cc2nccc(Oc3ccc(NC(=O)c4ccccc4Nc4ccc(F)cc4)cc3)c2cc1OC [Example 11, N-(4-(6,7-dimethoxyquinolin-4-yloxy)phenyl)-2-(4-fluorophenylamino)benzamide]
5 | 0.1 to 0.5 | < 0.1 | < 0.1 | COc1ccc2c(Oc3ccc(NC(=O)c4ccccc4Nc4ccccc4)cc3F)ccnc2c1 [Example 17, N-(3-fluoro-4-(7-methoxyquinolin-4-yloxy)phenyl)-2-(phenylamino)benzamide]
6 | < 0.1 | < 0.1 | < 0.1 | COc1cc2nccc(Oc3ccc(NC(=O)c4ccccc4Nc4cccc(F)c4)cc3)c2cc1OC [Example 13, N-(4-(6,7-dimethoxyquinolin-4-yloxy)phenyl)-2-(3-fluorophenylamino)benzamide]
7 | < 0.1 | < 0.1 | < 0.1 | COc1cnc2c(Oc3ccc(NC(=O)c4ccccc4Nc4ccccc4)cc3)ccnc2c1 [Example 15, N-(4-(7-methoxy-1,5-naphthyridin-4-yloxy)phenyl)-2-(phenylamino)benzamide]
8 | 1 to 5 | 0.5 to 1 | 0.1 to 0.5 | COc1cnc2c(Oc3ccc(NC(=O)c4ccccc4NN4CCCCC4)cc3)ccnc2c1 [Example 20, N-(4-(7-methoxy-1,5-naphthyridin-4-yloxy)phenyl)-2-(piperidin-1-ylamino)benzamide]
9 | < 0.1 | < 0.1 | < 0.1 | COc1cnc2c(Oc3ccc(NC(=O)c4cc(F)ccc4Nc4ccccc4)cc3)ccnc2c1 [Example 14, 5-fluoro-N-(4-(7-methoxy-1,5-naphthyridin-4-yloxy)phenyl)-2-(phenylamino)benzamide]
10 | 0.5 to 1 | 1 to 5 | < 0.1 | COc1cnc2c(Sc3ccc(NC(=O)c4ccccc4NN4CCC(OC)CC4)cc3)ccnc2c1 [Example 22, N-(4-(7-methoxy-1,5-naphthyridin-4-ylthio)phenyl)-2-(4-methoxypiperidin-1-ylamino)benzamide]
11 | 1 to 5 | 1 to 5 | 0.1 to 0.5 | CNC(=O)c1cc(Oc2ccc(NC(=O)c3ccccc3Nc3ccccc3)cc2)ccn1 [Example 21, N-methyl-4-(4-(2-(phenylamino)benzamido)phenoxy)picolinamide]
12 | < 0.1 | < 0.1 | < 0.1 | COc1cc2nccc(Oc3ccc(NC(=O)c4ccccc4Nc4ccccc4)cc3)c2cc1OC [Example 12, N-(4-(6,7-dimethoxyquinolin-4-yloxy)phenyl)-2-(phenylamino)benzamide]
